The target in test [1] is T1, human AspH (His6-AspH315–758) (Homo sapiens, UniProt Q12797).
T1 construct: N-Terminally His6-tagged human AspH315–758 (His6-AspH315–758) was produced in Escherichia coli BL21 (DE3) cells; made in house; host or cells: Escherichia coli BL21 (DE3), pET-28a(+) vector
T1 sequence (Q12797 315-758): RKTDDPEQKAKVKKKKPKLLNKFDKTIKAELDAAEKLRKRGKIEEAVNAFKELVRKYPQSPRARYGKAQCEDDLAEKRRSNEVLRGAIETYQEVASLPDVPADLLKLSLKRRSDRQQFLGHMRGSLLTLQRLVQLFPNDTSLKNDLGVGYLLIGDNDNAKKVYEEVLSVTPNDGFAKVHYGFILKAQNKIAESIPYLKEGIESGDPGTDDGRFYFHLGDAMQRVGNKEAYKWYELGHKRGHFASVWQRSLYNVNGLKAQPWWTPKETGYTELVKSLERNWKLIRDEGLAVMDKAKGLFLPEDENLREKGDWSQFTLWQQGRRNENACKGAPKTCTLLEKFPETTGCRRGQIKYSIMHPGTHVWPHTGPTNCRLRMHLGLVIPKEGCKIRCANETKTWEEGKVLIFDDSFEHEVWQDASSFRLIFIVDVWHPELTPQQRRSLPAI
Briefly: SPE-MS AspH inhibition assay (hFX-CP101-119 substrate hydroxylation). Type of test: biochemical. The note with it: for inhibition at 20 µM / AspH inhibition at 20 μM: 20 μM fixed inhibitor, relative to DMSO and 2,4-PDCA controls; for remaining activity at 20 µM: 20 μM fixed inhibitor concentration; for Hill coefficient of AspH inhibition curves: dose-response curves of SPE-MS AspH inhibition assay.

A further test addresses T2, His6-AspH315–758 (Homo sapiens, UniProt Q12797).
T2 construct: A mixture of SYPRO orange (1‰v/v) and His6-AspH315–758 (4 μM) in 50 mM aqueous HEPES buffer; made in house; host or cells: Escherichia coli BL21 (DE3), pET-28a(+) vector
T2 sequence (Q12797 315-758): T1 sequence (Q12797 315-758)
Briefly: AspH differential scanning fluorimetry (DSF) assay, melting temperature shift. Type of test: binding. The following applies: 40 μM inhibitor, 4 μM His6-AspH315–758, with respect to DMSO controls; for ΔTm at 40 µM: read-out: Tm-shift (ΔTm) of AspH. On the procedure:
A mixture of SYPRO orange (1‰v/v) and His6-AspH315–758 (4 μM) in 50 mM aqueous HEPES buffer (pH 7.5, 150 mM NaCl, 50 μM NiCl2) was carefully pipetted into a 96-well VWR PCR-plate (38 μL per well). An inhibitor solution (0.8 mM in DMSO) or a negative control sample (pure DMSO) was added to each well (2 μL per well, final inhibitor concentration of 40 μM) and the resulting solutions were gently mixed using a pipette. The plate was sealed with optical tape (Bio-Rag, iCycler iQ), centrifuged (5 sec, 1000 rpm) and placed into a C1000Touch Thermal Cycler equipped with a CFX96 Real-Time System (Bio-Rad). The instrument was heated with a rate of 1 °C per cycle (starting at an initial temperature of 25 °C; 70 cycles total). Data were analyzed using Microsoft Excel and GraphPad Prism according to the literature.[107] DSF assays were performed in independent duplicates, each composed of technical duplicates (Supporting Fig. S4).
(In general: DSF heats the sample and reads unfolding from a dye or from intrinsic fluorescence.)

In a further test the test system is Bcl-XL. The following applies: fluorescence polarisation, 30 nM enzyme concentration; cited from earlier work. A general note: In fluorescence polarisation assays a small probe gives low polarisation when free and higher when bound to something large.
The mark [2] stands for this setting: 50 nM His6-AspH315–758, 1 μM hFX-CP101–119, 100 μM LAA, 3 μM 2OG, 2 μM FAS, 50 mM HEPES pH 7.5, 20 °C, read-out: IC50.
Where [3] appears, read: read-out: IC50 at 10 μM substrate, 10 μM hFX-CP101–119 and 10 μM 2OG instead of 1 μM hFX-CP101–119 and 3 μM 2OG.
[4] abbreviates: read-out: IC50 at 20 μM Fe(II), 20 μM Fe(II) instead of 2 μM Fe(II).
Setting [5] is: read-out: IC50 at 200 μM 2OG, 200 μM 2OG instead of 3 μM 2OG.
[6] abbreviates: 50 nM His6-AspH315–758, 1 μM hFX-CP101–119, 100 μM LAA, 3 μM 2OG, 2 μM FAS, 50 mM HEPES pH 7.5, 20 °C.

Read-outs that look alike come from different tables or passages of the source.

The IC50 is the midpoint of a concentration-inhibition curve. A word on the inhibition: it is the change of the read-out against control, counted positive when it falls. For orientation: remaining activity means what remains of the control signal, in per cent.

For `CN(C)CC[C@H](CSc1ccccc1)Nc1ccc(S(=O)(=O)NC(=O)c2ccc(N3CCN(Cc4ccccc4-c4ccc(Cl)cc4)CC3)cc2)cc1[N+](=O)[O-]` [ABT-737, reference compound], the IC50 in test [1] (setting [2]) was 3380 ± 340 nM; in test [1] (setting [3]), 2990 ± 350 nM; in test [1] (setting [4]), 2920 ± 880 nM; in test [1] (setting [5]) it was 4470 ± 1320 nM. Besides, on His6-AspH315–758, the ΔTm at 40 µM was found to be 1.5 ± 0.1 °C.

With `O=C(O)c1ccnc(C(=O)O)c1` [2,4-PDCA, Pyridine-2,4-dicarboxylic acid, reference compound], the IC50 in test [1] (setting [2]) is 20 ± 10 nM; in test [1] (setting [3]), 20 ± 10 nM; in test [1] (setting [5]), 100 ± 30 nM. For the same molecule, the inhibition at 20 µM in test [1] (setting [6]) was found to be 100 ± 0.6%. Besides, the ΔTm at 40 µM on His6-AspH315–758 was determined as 3.2 ± 0.4 °C.

As to `CC1(C)CCC(c2ccc(Cl)cc2)=C(CN2CCN(c3ccc(C(=O)NS(=O)(=O)c4ccc(N[C@H](CCN5CCOCC5)CSc5ccccc5)c(S(=O)(=O)C(F)(F)F)c4)cc3)CC2)C1` [Navitoclax, reference compound], the concentration for half-maximal inhibition (IC50) in test [1] (50 nM His6-AspH315–758, 1 μM hFX-CP101–119, 100 μM LAA, 3 μM 2OG, 2 μM FAS, 50 mM HEPES pH 7.5, 20 °C, listed as navitoclax, read-out: IC50) was roughly 1000 nM; in test [1] (setting [2]), 1030 ± 120 nM; in test [1] (setting [3]), 1210 ± 40 nM; in test [1] (setting [4]) it was 800 ± 420 nM; in test [1] (setting [5]), 1330 ± 170 nM. Also, the remaining activity at 20 µM in test [1] was roughly 10%. The inhibition at 20 µM in test [1] (setting [6]) came to 90.1 ± 0.1%. Moreover, the ΔTm at 40 µM at His6-AspH315–758 was -2.1 ± 0.3 °C.

On to `O=C(/C=C/c1cccc(S(=O)(=O)Nc2ccccc2)c1)NO` [Belinostat, reference compound], for which the IC50 in test [1] (setting [2]) was determined as 7490 ± 1260 nM; in test [1] (setting [3]), 4770 ± 100 nM; in test [1] (setting [4]), 3100 ± 1440 nM; in test [1] (setting [5]), 11200 ± 4000 nM. Moreover, the “AspH inhibition at 20 μM” value in test [1] (setting [6]) was found to be 97.1 ± 0.2%. Further, the inhibition at 20 µM in test [1] (setting [6]) was greater than 90%. In addition, the “Hill coefficient of AspH inhibition curves” value in test [1] is on record as less than -2.0. Moreover, at His6-AspH315–758, the ΔTm at 40 µM amounted to 0.1 ± 0.2 °C.

On to `Cc1cc2c(C(C)C)c(O)c(O)c(C=O)c2c(O)c1-c1c(C)cc2c(C(C)C)c(O)c(O)c(C=O)c2c1O` [(R)-Gossypol, reference compound], for which the IC50 in test [1] (setting [2]) is 250 ± 10 nM; in test [1] (setting [3]) it was 330 ± 20 nM; in test [1] (setting [4]), 260 ± 30 nM; in test [1] (setting [5]), 250 ± 10 nM; in the test with Bcl-XL it was roughly 500 nM. Besides, the “AspH inhibition at 20 μM” value in test [1] (setting [6]) was “Complete suppression of AspH activity”. In addition, the inhibition at 20 µM in test [1] (setting [6]) came to 101 ± 2.3%.

On to `CC1(C)CCC(CN2CCN(c3ccc(C(=O)NS(=O)(=O)c4ccc(NCC5CCOCC5)c([N+](=O)[O-])c4)c(Oc4cnc5[nH]ccc5c4)c3)CC2)=C(c2ccc(Cl)cc2)C1` [Venetoclax, reference compound], for which the IC50 in test [1] (50 nM His6-AspH315–758, 1 μM hFX-CP101–119, 100 μM LAA, 3 μM 2OG, 2 μM FAS, 50 mM HEPES pH 7.5, 20 °C, listed as venetoclax, read-out: IC50) is roughly 1400 nM; in test [1] (setting [2]), 1400 ± 140 nM; in test [1] (setting [3]) it was 1570 ± 210 nM; in test [1] (setting [4]) it was 1290 ± 240 nM; in test [1] (setting [5]) it was 1520 ± 240 nM. The molecule further returned a remaining activity at 20 µM in test [1] of roughly 3%. The inhibition at 20 µM in test [1] (setting [6]) came out at 97.2 ± 0.2%. Also, in test [1] (AspH-inhibitor screening, 384-well Plate 1), the “Plate 1 (% inhibition)” value is 97.05%. The “Plate 1 (% conversion)” value in test [1] (AspH-inhibitor screening, 384-well Plate 1, substrate conversion) is listed as 4.94%. The “Plate 1-duplicate (% inhibition)” value in test [1] (AspH-inhibitor screening, Plate 1-duplicate) was found to be 97.31%. Also, the “Plate 1-duplicate (% conversion)” value in test [1] (AspH-inhibitor screening, Plate 1-duplicate, substrate conversion) amounted to 3.78%. Besides, the “selectivity for Bcl-2 over AspH” value in test [1] (Bcl-2 inhibited more efficiently than AspH) is listed as ~ 1000 fold. For the same molecule, in test [1], the “Hill coefficient of AspH inhibition curves” value was less than -2.0. On His6-AspH315–758, the ΔTm at 40 µM came to 0.7 ± 0.3 °C.

Take Mithramycin A [reference compound]: the “Tm-shift (ΔTm) of AspH” value at His6-AspH315–758 stood at 0.4 ± 0.2 °C.

Source of the values: publication PMC7588595, “Small-molecule active pharmaceutical ingredients of approved cancer therapeutics inhibit human aspartate/asparagine-β-hydroxylase” (Bioorganic & Medicinal Chemistry, 2020).
